These results are taken from patent US12466827B2, “1,3,4-oxadiazole derivative compounds as histone deacetylase 6 inhibitor, and the pharmaceutical composition comprising the same” (CHONG KUN DANG PHARMACEUTICAL CORP., priority 2020, dated 2025).

Molecules are shown by their SMILES.

For one assay, the target named is T1, human recombinant HDAC1 (Homo sapiens, UniProt Q13547).
T1 construct: purchased Enzo Life Sciences, Inc. BML-SE456
Put plainly: In vitro HDAC enzyme activity inhibition assay (HDAC1). Format: biochemical. The note with it: Fluor de Lys-SIRT1 substrate 10 μM, 30° C., 60 minutes, fluorescence. Here is the method: (§1) In order to confirm the selectivity of the compounds represented by Chemical Formula I of the present invention to HDAC6 through HDAC1 and HDAC6 enzyme activity inhibition experiments, a comparison experiment was performed using the material that has already been developed as a control group.
(§2) HDAC enzyme activity was measured using the HDAC Fluorimetric Drug Discovery Kit (Enzo Life Sciences, Inc., BML-AK511, 516). For the HDAC1 enzyme activity test, human recombinant HDAC1 (BML-SE456) was used as an enzyme source and Fluor de Lys-SIRT1 (BNL-KI177) was used as a substrate. After dispensing 5-fold diluted compounds into a 96-well plate, 0.3 μg of enzyme and 10 μM substrate were added to each well of the plate and allowed to react at 30° C. for 60 minutes. Next, Fluor de Lys Developer II (BML-KI176) was added and reacted for 30 minutes to complete the reaction, and then the fluorescence values (Ex 360, Em 460) were measured using a multi-plate reader (Flexstation 3, Molecular Device). The HDAC6 enzymes were tested using human recombinant HDAC6 (382180) from Calbiochem Inc., according to the same protocol as the HDAC1 enzyme activity test method. With respect to the final result values, respective IC50 values were calculated using GraphPad Prism 4.0 program, and results thereof were summarized in Table 4 below.

Another assay concerns the target T2, human recombinant HDAC6 (Homo sapiens, UniProt Q9UBN7).
T2 construct: purchased Calbiochem Inc. 382180
T2 sequence (Q9UBN7 1-1215): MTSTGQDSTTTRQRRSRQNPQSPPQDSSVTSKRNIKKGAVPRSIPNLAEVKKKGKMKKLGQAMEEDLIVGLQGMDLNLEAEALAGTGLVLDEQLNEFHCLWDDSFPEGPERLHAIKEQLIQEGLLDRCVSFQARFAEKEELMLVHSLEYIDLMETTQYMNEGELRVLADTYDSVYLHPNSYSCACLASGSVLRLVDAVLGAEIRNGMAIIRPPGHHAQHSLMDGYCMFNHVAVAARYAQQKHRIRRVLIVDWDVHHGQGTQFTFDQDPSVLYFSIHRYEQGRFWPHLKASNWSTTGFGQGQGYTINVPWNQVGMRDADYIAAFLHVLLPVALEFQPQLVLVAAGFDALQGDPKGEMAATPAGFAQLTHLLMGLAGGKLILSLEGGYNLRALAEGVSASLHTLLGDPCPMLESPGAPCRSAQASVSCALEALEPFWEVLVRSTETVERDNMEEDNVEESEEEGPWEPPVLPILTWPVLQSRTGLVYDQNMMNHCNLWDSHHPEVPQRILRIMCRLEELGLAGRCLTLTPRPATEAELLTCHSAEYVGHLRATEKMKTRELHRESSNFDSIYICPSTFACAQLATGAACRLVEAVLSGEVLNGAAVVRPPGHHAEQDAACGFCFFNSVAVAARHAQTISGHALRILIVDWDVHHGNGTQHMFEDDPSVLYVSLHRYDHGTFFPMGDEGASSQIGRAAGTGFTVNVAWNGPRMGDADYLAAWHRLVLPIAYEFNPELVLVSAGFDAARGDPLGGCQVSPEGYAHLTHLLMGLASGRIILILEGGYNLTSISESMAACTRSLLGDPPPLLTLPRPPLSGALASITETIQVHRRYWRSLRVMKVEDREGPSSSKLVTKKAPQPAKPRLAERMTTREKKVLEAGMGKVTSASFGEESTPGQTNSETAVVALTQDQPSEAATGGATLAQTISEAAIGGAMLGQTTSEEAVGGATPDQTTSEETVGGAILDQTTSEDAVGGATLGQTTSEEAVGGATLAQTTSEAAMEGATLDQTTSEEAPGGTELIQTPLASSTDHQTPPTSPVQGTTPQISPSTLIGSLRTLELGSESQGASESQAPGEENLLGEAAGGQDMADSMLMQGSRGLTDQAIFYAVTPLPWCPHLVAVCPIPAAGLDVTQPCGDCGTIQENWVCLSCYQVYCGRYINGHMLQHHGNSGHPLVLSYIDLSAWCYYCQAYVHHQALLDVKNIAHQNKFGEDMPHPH
Description: In vitro HDAC enzyme activity inhibition assay (HDAC6). The settings on record: for HDAC6 selectivity (fold): HDAC6 over HDAC1; for IC50: same protocol as the HDAC1 test, human recombinant HDAC6 (Calbiochem). Format: biochemical. On the procedure:
as §1, §2

T1 sequence (Q13547 whole entry): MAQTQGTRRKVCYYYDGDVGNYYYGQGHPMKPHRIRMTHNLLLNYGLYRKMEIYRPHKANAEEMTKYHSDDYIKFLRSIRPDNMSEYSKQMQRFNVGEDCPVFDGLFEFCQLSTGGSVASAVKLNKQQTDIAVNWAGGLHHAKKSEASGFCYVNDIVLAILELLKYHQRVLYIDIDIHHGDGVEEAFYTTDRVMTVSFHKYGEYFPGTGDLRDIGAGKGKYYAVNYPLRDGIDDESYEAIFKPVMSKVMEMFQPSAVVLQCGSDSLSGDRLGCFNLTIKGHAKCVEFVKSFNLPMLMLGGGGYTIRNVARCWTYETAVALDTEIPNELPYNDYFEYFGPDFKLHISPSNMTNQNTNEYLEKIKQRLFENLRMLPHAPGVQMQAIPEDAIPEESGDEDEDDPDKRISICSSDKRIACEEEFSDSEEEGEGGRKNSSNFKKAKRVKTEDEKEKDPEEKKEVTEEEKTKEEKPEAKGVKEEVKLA

As to `CN1CCC(S(=O)(=O)N(Cc2cn3ccc(-c4nnc(C(F)F)o4)cc3n2)c2ccccc2)CC1` [Compound 3778, N-((7-(5-(difluoromethyl)-1,3,4-oxadiazol-2-yl)imidazo[1,2-a]pyridin-2-yl)methyl)-1-methyl-N-phenylpiperidine-4-sulfonamide], the values for the IC50 at human recombinant HDAC1 and on human recombinant HDAC6 were > 50000 nM and 91 nM, respectively. At human recombinant HDAC6, the “HDAC6 selectivity (fold)” value was 549 fold.
Taken in the same sequence, the figures for `O=S(=O)(C1CCN(C2COC2)CC1)N(Cc1cn2ccc(-c3nnc(C(F)F)o3)cc2n1)c1ccccc1` [Compound 3779, N-((7-(5-(difluoromethyl)-1,3,4-oxadiazol-2-yl)imidazo[1,2-a]pyridin-2-yl)methyl)-1-(oxetan-3-yl)-N-phenylpiperidine-4-sulfonamide] were > 50000 nM, 156 nM and 321 fold.
The like results for `CCN1CCC(S(=O)(=O)N(Cc2cn3ccc(-c4nnc(C(F)F)o4)cc3n2)c2ccccc2)CC1` [Compound 4214, N-((7-(5-(difluoromethyl)-1,3,4-oxadiazol-2-yl)imidazo[1,2-a]pyridin-2-yl)methyl)-1-ethyl-N-phenylpiperidine-4-sulfonamide] were, in that order, > 50000 nM, 180 nM and 278 fold.
Taken in the same sequence, the figures for `CC(C)N1CCC(S(=O)(=O)N(Cc2cn3ccc(-c4nnc(C(F)F)o4)cc3n2)c2ccccc2)CC1` [Compound 4215, N-((7-(5-(difluoromethyl)-1,3,4-oxadiazol-2-yl)imidazo[1,2-a]pyridin-2-yl)methyl)-1-isopropyl-N-phenylpiperidine-4-sulfonamide] were > 50000 nM, 182 nM and 275 fold.
For the molecule `CC(CO)N1CCC(S(=O)(=O)N(Cc2cn3ccc(-c4nnc(C(F)F)o4)cc3n2)c2ccccc2)CC1` (stereo not drawn) [Compound 4216, N-((7-(5-(difluoromethyl)-1,3,4-oxadiazol-2-yl)imidazo[1,2-a]pyridin-2-yl)methyl)-1-(1-hydroxypropan-2-yl)-N-phenylpiperidine-4-sulfonamide], at human recombinant HDAC1, the 50% inhibitory concentration (IC50) is > 50000 nM. Further, at human recombinant HDAC6, the “HDAC6 selectivity (fold)” value came to 420 fold and the IC50 was 119 nM.
In the case of `O=S(=O)(C1CCN(C2CCC2)CC1)N(Cc1cn2ccc(-c3nnc(C(F)F)o3)cc2n1)c1ccccc1` [Compound 4217, 1-cyclobutyl-N-((7-(5-(difluoromethyl)-1,3,4-oxadiazol-2-yl)imidazo[1,2-a]pyridin-2-yl)methyl)-N-phenylpiperidine-4-sulfonamide], the IC50 at human recombinant HDAC1 was > 50000 nM. On human recombinant HDAC6, the “HDAC6 selectivity (fold)” value is on record as 410 fold and the IC50 worked out at 122 nM.
The like results for `O=S(=O)(C1CCN(C2CCCCC2)CC1)N(Cc1cn2ccc(-c3nnc(C(F)F)o3)cc2n1)c1ccccc1` [Compound 4218, 1-cyclohexyl-N-((7-(5-(difluoromethyl)-1,3,4-oxadiazol-2-yl)imidazo[1,2-a]pyridin-2-yl)methyl)-N-phenylpiperidine-4-sulfonamide] were, in that order, > 50000 nM, 433 fold and 116 nM.
Regarding `O=S(=O)(C1CCN(C2CCOCC2)CC1)N(Cc1cn2ccc(-c3nnc(C(F)F)o3)cc2n1)c1ccccc1` [Compound 4219, N-((7-(5-(difluoromethyl)-1,3,4-oxadiazol-2-yl)imidazo[1,2-a]pyridin-2-yl)methyl)-N-phenyl-1-(tetrahydro-2H-pyran-4-yl)piperidine-4-sulfonamide], at human recombinant HDAC1, the IC50 is > 50000 nM. Further, on human recombinant HDAC6, the “HDAC6 selectivity (fold)” value is given as 482 fold and the IC50 came out at 104 nM.
Taken in the same sequence, the figures for `O=S(=O)(C1CCN(C2CCC(F)(F)CC2)CC1)N(Cc1cn2ccc(-c3nnc(C(F)F)o3)cc2n1)c1ccccc1` [Compound 4220, 1-(4,4-difluorocyclohexyl)-N-((7-(5-(difluoromethyl)-1,3,4-oxadiazol-2-yl)imidazo[1,2-a]pyridin-2-yl)methyl)-N-phenylpiperidine-4-sulfonamide] were > 50000 nM, 320 fold and 156 nM.
The like results for `CC(=O)N1CCC(S(=O)(=O)N(Cc2cn3ccc(-c4nnc(C(F)F)o4)cc3n2)c2ccccc2)CC1` [Compound 4221, 1-acetyl-N-((7-(5-(difluoromethyl)-1,3,4-oxadiazol-2-yl)imidazo[1,2-a]pyridin-2-yl)methyl)-N-phenylpiperidine-4-sulfonamide] were, in that order, > 50000 nM, 364 fold and 137 nM.
With `CCC(=O)N1CCC(S(=O)(=O)N(Cc2cn3ccc(-c4nnc(C(F)F)o4)cc3n2)c2ccccc2)CC1` [Compound 4222, N-((7-(5-(difluoromethyl)-1,3,4-oxadiazol-2-yl)imidazo[1,2-a]pyridin-2-yl)methyl)-N-phenyl-1-propionylpiperidine-4-sulfonamide], the IC50 at human recombinant HDAC1 is > 50000 nM; on human recombinant HDAC6, 218 nM. Also, the “HDAC6 selectivity (fold)” value at human recombinant HDAC6 is on record as 229 fold.
As to `O=C(C1CCC1)N1CCC(S(=O)(=O)N(Cc2cn3ccc(-c4nnc(C(F)F)o4)cc3n2)c2ccccc2)CC1` [Compound 4223, 1-(cyclobutanecarbonyl)-N-((7-(5-(difluoromethyl)-1,3,4-oxadiazol-2-yl)imidazo[1,2-a]pyridine-2-yl)methyl)-N-phenylpiperidine-4-sulfonamide], the IC50 was > 50000 nM at human recombinant HDAC1 and 128 nM on human recombinant HDAC6. The “HDAC6 selectivity (fold)” value at human recombinant HDAC6 was found to be 392 fold.
With `O=C(N1CCC(S(=O)(=O)N(Cc2cn3ccc(-c4nnc(C(F)F)o4)cc3n2)c2ccccc2)CC1)C(F)(F)F` [Compound 4224, N-((7-(5-(difluoromethyl)-1,3,4-oxadiazol-2-yl)imidazo[1,2-a]pyridin-2-yl)methyl)-N-phenyl-1-(2,2,2-trifluoroacetyl)piperidine-4-sulfonamide], the 50% inhibitory concentration (IC50) at human recombinant HDAC1 is > 50000 nM. Besides, on human recombinant HDAC6, the “HDAC6 selectivity (fold)” value is 354 fold and the IC50 turned out to be 141 nM.
For `CS(=O)(=O)N1CCC(S(=O)(=O)N(Cc2cn3ccc(-c4nnc(C(F)F)o4)cc3n2)c2ccccc2)CC1` [Compound 4225, N-((7-(5-(difluoromethyl)-1,3,4-oxadiazol-2-yl)imidazo[1,2-a]pyridin-2-yl)methyl)-1-(methylsulfonyl)-N-phenylpiperidine-4-sulfonamide], the IC50 at human recombinant HDAC1 is > 50000 nM. Moreover, at human recombinant HDAC6, the “HDAC6 selectivity (fold)” value was 530 fold and the IC50 came out at 94.4 nM.
The like results for `COC(=O)N1CCC(S(=O)(=O)N(Cc2cn3ccc(-c4nnc(C(F)F)o4)cc3n2)c2ccccc2)CC1` [Compound 4226, methyl 4-(N-((7-(5-(difluoromethyl)-1,3,4-oxadiazol-2-yl)imidazo[1,2-a]pyridin-2-yl)methyl)-N-phenylsulfamoyl)piperidine-1-carboxylate] were, in that order, > 50000 nM, 432 fold and 116 nM.
Taken in the same sequence, the figures for `CN(C)C(=O)N1CCC(S(=O)(=O)N(Cc2cn3ccc(-c4nnc(C(F)F)o4)cc3n2)c2ccccc2)CC1` [Compound 4227, 4—(N-((7-(5-(difluoromethyl)-1,3,4-oxadiazol-2-yl)imidazo[1,2-a]pyridin-2-yl)methyl)-N-phenylsulfamoyl)-N, N-dimethylpiperidine-1-carboxamide] were > 50000 nM, 241 fold and 208 nM.

By IC50 is commonly meant the point on the concentration scale where inhibition reaches its midpoint.
